Experimental data published in paper PMC9742833.
Structures can show the parent of a compound that is named as a salt.

Experiments:
[1] = from 36.1 to 59.2 g of khat chewed, mean ± SD; cited from earlier work
CYP2C8 [2] = assay: Vivid CYP450 fluorescence assay, reversible inhibition; settings: CYP2C8, substrate DBOMF, cathinone 0 to 1000 µM
CYP2C8 [3] = system: T1, CYP2C8; assay: Time-dependent inhibition (IC50 shift, NADPH pre-incubation); type: biochemical, human; settings: CYP2C8 (stated for all 8 CYPs)
T1 construct: purchased Life Technologies
Experimental: (§1) The procedure followed was similar to that used for screening of CYP reversible inhibition as mentioned above but with slight modifications. The master premix was added with NADP^+ to produce NADPH before the pre-incubation. The mixture was incubated for 30 min with shaking under similar range of concentrations of cathinone as mentioned above for IC50 determination. […] The IC50 shift was derived by calculating ratios of IC50 obtained from pre-incubation with and without NADPH. An IC50 shift ratio of more than 2 signifies irreversible time-dependent inhibition.

CYP2D6 = settings: human CYP2D6, in vitro; cited from earlier work
CYP3A5 [4] = molecular target: T2, CYP3A5 (Homo sapiens, UniProt P20815); assay: Vivid CYP450 fluorescence assay, reversible inhibition
T2 sequence (P20815 whole entry): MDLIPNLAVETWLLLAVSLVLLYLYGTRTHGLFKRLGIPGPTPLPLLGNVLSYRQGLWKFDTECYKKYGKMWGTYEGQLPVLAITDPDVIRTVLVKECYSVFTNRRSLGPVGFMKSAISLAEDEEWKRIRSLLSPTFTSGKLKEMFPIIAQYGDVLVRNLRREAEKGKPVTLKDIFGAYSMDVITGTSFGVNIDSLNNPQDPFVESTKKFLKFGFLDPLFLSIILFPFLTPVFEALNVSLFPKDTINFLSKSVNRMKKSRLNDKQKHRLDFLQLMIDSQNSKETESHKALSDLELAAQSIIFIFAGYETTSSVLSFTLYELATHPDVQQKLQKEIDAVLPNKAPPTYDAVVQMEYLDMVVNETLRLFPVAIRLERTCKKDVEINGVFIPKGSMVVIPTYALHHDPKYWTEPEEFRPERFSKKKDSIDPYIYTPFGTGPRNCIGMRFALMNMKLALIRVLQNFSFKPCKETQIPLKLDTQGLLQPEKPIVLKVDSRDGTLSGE

CYP1A2 [5] = molecular target: T3, CYP1A2 (Homo sapiens, UniProt P05177); assay: as above
T3 sequence (P05177 2-516 limits assumed): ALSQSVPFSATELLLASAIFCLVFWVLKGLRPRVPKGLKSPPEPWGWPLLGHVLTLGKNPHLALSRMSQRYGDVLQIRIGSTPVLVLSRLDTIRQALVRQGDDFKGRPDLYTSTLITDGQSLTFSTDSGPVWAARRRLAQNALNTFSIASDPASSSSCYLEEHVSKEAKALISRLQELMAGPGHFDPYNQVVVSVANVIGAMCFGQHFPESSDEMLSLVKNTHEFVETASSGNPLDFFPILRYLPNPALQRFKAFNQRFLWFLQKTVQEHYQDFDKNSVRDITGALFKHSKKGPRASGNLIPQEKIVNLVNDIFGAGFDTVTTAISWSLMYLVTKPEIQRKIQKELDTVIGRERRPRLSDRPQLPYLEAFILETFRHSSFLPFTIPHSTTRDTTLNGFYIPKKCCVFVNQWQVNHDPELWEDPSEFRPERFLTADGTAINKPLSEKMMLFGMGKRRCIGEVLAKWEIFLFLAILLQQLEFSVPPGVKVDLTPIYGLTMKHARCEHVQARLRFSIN

[6] = cited from earlier work
CYP2J2 [7] = molecular target: T4, CYP2J2 (Homo sapiens, UniProt P51589); assay: Time-dependent inhibition (IC50 shift, NADPH pre-incubation); type: biochemical; parameters: purchased Life Technologies
T4 sequence (P51589 1-502): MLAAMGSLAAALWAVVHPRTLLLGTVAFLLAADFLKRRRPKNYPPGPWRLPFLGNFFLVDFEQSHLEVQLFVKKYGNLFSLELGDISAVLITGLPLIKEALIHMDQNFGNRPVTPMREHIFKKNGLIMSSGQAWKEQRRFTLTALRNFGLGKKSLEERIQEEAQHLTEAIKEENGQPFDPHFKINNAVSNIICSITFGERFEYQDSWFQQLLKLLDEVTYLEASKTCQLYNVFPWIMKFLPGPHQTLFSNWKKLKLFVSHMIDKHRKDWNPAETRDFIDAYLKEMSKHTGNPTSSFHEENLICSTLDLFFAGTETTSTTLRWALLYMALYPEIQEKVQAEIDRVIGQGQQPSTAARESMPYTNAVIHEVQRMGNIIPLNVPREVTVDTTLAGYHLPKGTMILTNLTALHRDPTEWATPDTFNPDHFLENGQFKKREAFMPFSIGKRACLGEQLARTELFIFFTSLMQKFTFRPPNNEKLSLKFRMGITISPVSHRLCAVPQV
Experimental: as §1

CYP3A5 [8] = molecular target: T2, CYP3A5; assay: as above; type: biochemical; parameters: purchased Life Technologies
Experimental: as §1

CYP2E1 [9] = molecular target: T5, CYP2E1 (Homo sapiens, UniProt P05181); assay: as above; type: biochemical; parameters: purchased Life Technologies
T5 sequence (P05181 whole entry): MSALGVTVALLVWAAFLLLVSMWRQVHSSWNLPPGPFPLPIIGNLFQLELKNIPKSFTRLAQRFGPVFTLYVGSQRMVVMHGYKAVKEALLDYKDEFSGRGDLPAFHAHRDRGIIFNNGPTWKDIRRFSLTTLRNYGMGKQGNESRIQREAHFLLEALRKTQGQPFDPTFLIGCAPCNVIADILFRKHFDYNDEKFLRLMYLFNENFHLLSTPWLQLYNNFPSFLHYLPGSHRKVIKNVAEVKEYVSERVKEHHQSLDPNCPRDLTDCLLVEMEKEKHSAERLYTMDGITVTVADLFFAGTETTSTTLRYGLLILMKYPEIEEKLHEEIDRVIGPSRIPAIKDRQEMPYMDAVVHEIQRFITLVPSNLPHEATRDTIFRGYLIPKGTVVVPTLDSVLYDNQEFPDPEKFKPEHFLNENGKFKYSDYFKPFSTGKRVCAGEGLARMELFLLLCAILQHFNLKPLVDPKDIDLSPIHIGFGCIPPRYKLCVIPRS
Experimental: as §1

CYP2B6 [10] = molecular target: T6, CYP2B6 (Homo sapiens, UniProt P20813); assay: as above; type: biochemical; parameters: purchased Life Technologies
T6 sequence (P20813 1-491): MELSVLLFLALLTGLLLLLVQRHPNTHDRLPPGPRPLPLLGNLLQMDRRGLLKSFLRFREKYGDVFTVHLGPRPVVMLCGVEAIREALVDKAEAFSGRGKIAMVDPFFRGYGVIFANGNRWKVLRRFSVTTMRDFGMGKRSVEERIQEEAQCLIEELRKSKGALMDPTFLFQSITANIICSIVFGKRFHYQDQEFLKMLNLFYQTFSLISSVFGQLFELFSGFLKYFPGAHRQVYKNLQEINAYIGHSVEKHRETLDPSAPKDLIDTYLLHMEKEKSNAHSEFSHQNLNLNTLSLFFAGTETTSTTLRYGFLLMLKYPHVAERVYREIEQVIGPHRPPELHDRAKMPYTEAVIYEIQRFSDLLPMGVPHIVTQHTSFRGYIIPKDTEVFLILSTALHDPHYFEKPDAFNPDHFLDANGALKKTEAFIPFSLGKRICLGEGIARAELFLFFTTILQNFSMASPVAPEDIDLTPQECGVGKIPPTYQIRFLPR
Experimental: as §1

CYP1A2 [11] = molecular target: T3, CYP1A2; assay: as above; type: biochemical; parameters: purchased Life Technologies
Experimental: as §1

CYP2C19 [12] = molecular target: T7, CYP2C19 (Homo sapiens, UniProt P33261); assay: as above; type: biochemical; parameters: purchased Life Technologies
T7 sequence (P33261 whole entry): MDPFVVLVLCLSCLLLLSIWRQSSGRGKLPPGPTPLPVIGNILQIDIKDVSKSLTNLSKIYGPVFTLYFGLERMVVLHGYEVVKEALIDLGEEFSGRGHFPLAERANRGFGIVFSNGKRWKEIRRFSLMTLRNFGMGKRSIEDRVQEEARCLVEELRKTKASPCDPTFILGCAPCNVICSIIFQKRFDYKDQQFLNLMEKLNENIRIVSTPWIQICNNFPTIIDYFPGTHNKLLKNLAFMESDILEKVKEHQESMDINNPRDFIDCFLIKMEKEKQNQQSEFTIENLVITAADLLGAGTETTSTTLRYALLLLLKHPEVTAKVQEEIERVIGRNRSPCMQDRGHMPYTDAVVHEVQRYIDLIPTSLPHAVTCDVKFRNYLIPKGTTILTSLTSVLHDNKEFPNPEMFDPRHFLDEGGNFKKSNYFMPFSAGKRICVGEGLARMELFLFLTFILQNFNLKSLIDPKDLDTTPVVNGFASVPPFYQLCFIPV
Experimental: as §1

CYP2A6 [13] = molecular target: T8, CYP2A6 (Homo sapiens, UniProt P11509); assay: as above; type: biochemical; parameters: purchased Life Technologies
T8 sequence (P11509 1-494): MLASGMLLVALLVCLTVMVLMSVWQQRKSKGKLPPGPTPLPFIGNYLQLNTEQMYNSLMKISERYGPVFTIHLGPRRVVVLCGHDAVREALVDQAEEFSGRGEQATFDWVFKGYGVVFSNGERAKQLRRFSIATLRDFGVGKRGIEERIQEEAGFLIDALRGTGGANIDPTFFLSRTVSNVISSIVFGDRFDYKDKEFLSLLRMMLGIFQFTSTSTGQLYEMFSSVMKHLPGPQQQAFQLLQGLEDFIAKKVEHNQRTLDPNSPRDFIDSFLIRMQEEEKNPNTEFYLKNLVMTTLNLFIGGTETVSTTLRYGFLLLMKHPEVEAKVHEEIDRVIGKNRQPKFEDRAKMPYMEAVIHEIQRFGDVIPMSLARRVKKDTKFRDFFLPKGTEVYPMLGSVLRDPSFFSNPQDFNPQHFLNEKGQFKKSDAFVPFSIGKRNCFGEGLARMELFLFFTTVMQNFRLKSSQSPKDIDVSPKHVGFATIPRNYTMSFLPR
Experimental: as §1

CYP3A4 = settings: human CYP3A4, in vitro; cited from earlier work
CYP2E1 [14] = molecular target: T5, CYP2E1; assay: Vivid CYP450 fluorescence assay, reversible inhibition
[15] = cited from earlier work; remark: listed apart in the source
CYP2C19 [16] = molecular target: T7, CYP2C19; assay: Vivid CYP450 fluorescence assay, reversible inhibition
CYP2J2 [17] = molecular target: T4, CYP2J2; assay: as above
CYP2B6 [18] = molecular target: T6, CYP2B6; assay: as above
CYP2A6 [19] = molecular target: T8, CYP2A6; assay: as above
CYP2C9 = settings: human CYP2C9, in vitro; cited from earlier work

For C[C@H](N)[C@@H](O)c1ccccc1 [cathine, S,S-(+)-norpseudoephedrine], the “Cmax (maximal plasma concentration)” value [1] is listed as 71.2 ± 13.9 ng/mL and the absorbed [1] is listed as 84 ± 6%.
For C[C@H](N)C(=O)c1ccccc1 [Cathinone, (S)− 2-Amino-1-phenyl-1-propanone.hydrochloride], the “inhibition of CYP2C8” value (CYP2C8 [2]) is listed as “no significant inhibition”, the “time dependent inhibition (TDI) potency” value (CYP2C8 [3]) is listed as “no significant TDI potency” and the inhibitory effects (CYP2D6) is listed as “negligible inhibitory effects”. The IC50 (CYP3A5 [4]) was 19.9 µM, the Ki (CYP3A5 [4]) was 23.6 µM and the mode of inhibition (CYP3A5 [4]; CYP3A5) was “noncompetitive”. The IC50 (CYP1A2 [5]) was 17 µM, the Ki (CYP1A2 [5]) was 57.1 µM and the mode of inhibition (CYP1A2 [5]; CYP1A2) was “competitive”. The “area under the plasma concentration – time curve (AUC) from 0 to 9 h” value [6] was 415 ± 207 ng/ml per hour, the “time of maximal plasma concentration” value [6] was 127 ± 30 min and the maximal plasma concentration ([6]; khat leaves equivalent to 0.8 mg cathinone/kg body weight) was 127 ± 53 ng/mL. For the same compound, the terminal elimination half-life ([6]; plasma) was 4.33 ± 1.7 h, the IC50 (CYP2J2 [7]) was 194 µM and the IC50 (CYP3A5 [8]) was 11.1 µM. It also gave an IC50 (CYP2E1 [9]) of 71.3 µM, an IC50 (CYP2B6 [10]) of 110 µM and an IC50 (CYP1A2 [11]) of 75.4 µM. It also gave an IC50 (CYP2C19 [12]) of 220 µM, an IC50 (CYP2A6 [13]) of 13.7 µM and an IC50 shift at 60 min (CYP2A6 [13]; human, pH 8, probe Vivid CC (3-cyanocoumarin), CYP2A6, shift > 2 = significant TDI) of 0.84. For the same compound, the “Cmax (maximal plasma concentration)” value [1] was 58.9 ± 18.8 ng/mL, the absorbed [1] was 59 ± 21% and the inhibitory effects (CYP3A4) was “negligible inhibitory effects”. For the same compound, the IC50 (CYP2E1 [14]) was 568 µM, the plasma level ([15]; at 0.5 and 7.5 h after the start of khat chewing) was “approximately 20 ng/ml” and the “maximum plasma levels (mean)” value ([15]; khat chewing) was 83 ng/mL. For the same compound, the IC50 (CYP2C19 [16]) was 118 µM, the IC50 (CYP2J2 [17]) was 163 µM and the IC50 (CYP2B6 [18]) was 165 µM. The IC50 (CYP2A6 [19]) was 11.5 µM, the Ki (CYP2A6 [19]) was 13.8 µM and the mode of inhibition (CYP2A6 [19]; CYP2A6) was “un-competitive”. The inhibitory effects (CYP2C9) was “negligible inhibitory effects”.
